Measurements: patent US11465989B2, “Guanidine compounds and use thereof” (IMMUNOMET THERAPEUTICS INC., priority 2014, dated 2022)
Where a name gives a salt, the structure may show the parent alone.

These compounds were tested on A549 cells (assay: Inhibition of OCR (XF Analyzer)). Settings: Homo sapiens, A549, 24 h.
Type: cell-based
Text: The electron transfer complex in mitochondria is composed of 5 complexes. The complex I accept electrons from NADH produced from glycolysis and TCA cycle and the electrons move to complex […] and the electron is finally transferred to O2 and water molecule is generated. During the electron transfer, proton gradient is generated and the chemical gradient is a driving source to synthesize ATP at complex V. The mitochondrial inhibition of complex I indirectly assessed by measuring the oxygen consumption rate (OCR) at complex IV. […] The solution outside of cells becomes acidic (lower pH) as lactate is transported to outside of cells. OCR and Extracellular acidification rate (ECAR) are determined by XF Analyzer (Seahorse Biosciences).
A549 cells were purchased from American Type Tissue Culture Collection ([…]) and cultured in RPMI 1640 supplied with 10% fetal bovine serum (FBS) and antibiotic-antimycotic (Lifetech, CA). A549 cells were separated with 0.5% Trypsin-EDTA and 3,000 cells were plated on 1 mg/ml poly-D-lysine (Sigma, P6407) coated XF 96 well […]. A549 cells were allowed to adhere to the wells for 24 hours under the condition of temperature, 37° C. and 5% CO2 The sensor cartridge of XF Analyzer was soaked in 200 Ad of Calibrant solution (Seahorse, MA) in a clear 96-well plate at 37° C. for 24 hours. The compounds of the present invention were diluted with RPMI 1640 without FBS, transferred to A549 cells on XF 96 well plate, and incubated further for 23 hours at 37° C. and 5% CO2. After incubation, the compound solution was exchanged with pre-warmed and pH adjusted (pH7.4) XF assay media (Seahorse) supplied with 15 mM D-glucose (Sigma), 15 mM sodium pyruvate (Lifetechnologies, CA) and 4 mM L-glutamine (Lifetechnologies, CA). The compounds of present invention were prepared in XF Assay media and added to the assay plate. The assay plate was equilibrated in XF Analyzer for 1 hour, and the reading were started by sensor cartridge. The cytotoxicity assay was followed using Cyquant (Lifetechnologies, CA) in order to calibrate the inhibition with cytotoxicity of compounds. The concentrations of the compounds were tested at […] and IC50 value was obtained from the inhibited values. That is, from OCR inhibition values at each concentration of the compound, IC50 was calculated according to Prism's dose response curve fitting.
In Table 1, the levels of OCR IC50 are evaluated by the following.

SMILES	IC50 [µM]
N=C(N)NC(=N)NCc1ccc(Cl)c(Cl)c1 [Example 37, hydrochloride]	> 5
N=C(N)NCc1c(F)cc(F)cc1F [Example 153, 1-(2,4,6-trifluorobenzyl)guanide hydrochloride]	> 5
Cc1cc(CNC(=N)N)ccc1Br [Example 207, 1-(4-bromo-3-methylbenzyl) guanide hydrochloride]	> 5
N=C(N)NC(=N)NCc1ccc2ccccc2c1 [Example 45, hydrochloride]	2 to 5
N=C(N)NC(=N)NCc1ccc(Oc2ccccc2)cc1 [Example 56, N-1-(4-phenoxy)benzylbiguanide hydrochloride]	> 5
CN(CCc1ccc(F)cc1)C(=N)N [Example 174, 1-(4-fluorophenethyl)-1-methyl guanide hydrochloride]	> 5
N=C(N)NC(=N)NCc1cccc(Cl)c1 [Example 41, N-1-(3-chloro)benzylbiguanide hydrochloride]	> 5
COc1cccc(CCNC(=N)NC(=N)N)c1 [Example 8, N-1-(3-methoxy)phenethylbiguanide hydrochloride]	2 to 5
N=C(N)NCc1ccc2ccccc2c1 [Example 198, 11-(naphthalen-2-ylmethyl)guanide hydrochloride]	2 to 5
N=C(N)NC1Cc2ccccc2C1 [Example 137, 1-(2,3-dihydro-1H-inden-2-yl)guanide hydrochloride]	2 to 5
N=C(N)NCc1ccc(-c2ccccc2)cc1 [Example 200, N-(4-phenyl)benzyl guanide hydrochloride]	2 to 5
N=C(N)NC(=N)NCCc1ccc(CCc2ccccc2)cc1 [Example 27, N-1-(4-phenethyl)phenethylbiguanide hydrochloride]	2 to 5
N=C(N)NCCc1ccc(CCc2ccccc2)cc1 [Example 187, 1-(4-phenethylphenethyl)guanide hydrochloride]	> 5
N=C(N)NC(=N)NCCC1CCCCC1 [Example 32, N-1-2-cyclohexylethylbiguanide hydrochloride]	> 5
N=C(N)NC(=N)NCCc1ccc(Br)c(Cl)c1 [Example 73, N-1-(4-bromo-3-chloro)phenethylbiguanide hydrochloride]	2 to 5
Cc1ccc(CNC(=N)NC(=N)N)cc1C [Example 28, N-1-(3,4-dimethyl)benzylbiguanide hydrochloride]	2 to 5
N=C(N)NCCC1CC1 [Example 190, 1-(2-cyclopropylethyl)guanide hydrochloride]	2 to 5
N=C(N)NC(=N)NCc1cccc2ccccc12 [Example 31, hydrochloride]	> 5
C[C@H](CNC(=N)N)c1ccccc1 [Example 175, (S)-1-(2-phenylpropyl)guanide hydrochloride]	> 5
N=C(N)NC(=N)NCCCc1ccc(C2CC2)cc1 [Example 47, N-1-1-(3-(4-cyclopropylphenyl)propyl)biguanide hydrochloride]	> 5
Cc1ccc(CCNC(=N)NC(=N)N)cc1 [Example 10, N-1-(4-methyl)phenethylbiguanide hydrochloride]	> 5
N=C(N)NCc1ccc(Oc2ccccc2)cc1 [Example 203, 1-(4-phenoxybenzyl) guanide hydrochloride]	2 to 5
N=C(N)NCc1ccc(Br)cc1 [Example 184, 1-(4-bromobenzyl)guanide hydrochloride]	> 5
CC(C)c1ccc(CCNC(=N)NC(=N)N)cc1 [Example 14, N-1-(4-isopropyl)phenethylbiguanide hydrochloride]	> 5
Cc1ccc(CNC(=N)N)cc1 [Example 151, 1-(4-methylbenzyl)guanide hydrochloride]	> 5
CN(CCCc1ccccc1)C(=N)N [Example 188, 1-methyl-1-(3-phenylpropyl)guanide hydrochloride]	> 5

Continued, values first:

IC50 [µM]	SMILES
< 2	N=C(N)NC(=N)NCCc1ccccc1Br [Example 26, N-1-(2-bromo)phenethylbiguanide hydrochloride]
> 5	CNC(=N)NC(=N)NCCc1ccc2c(c1)CCCC2 [Example 126, N-1-methyl-N-5-(2-(5,6,7,8-tetrahydronaphthalen-2-yl)ethyl) biguanide hydrochloride]
> 5	COc1ccc(CCCNC(=N)N)cc1 [Example 185, 1-(3-(4-methoxyphenyl)propyl)guanide hydrochloride]
< 2	N=C(N)NC(=N)NCCc1ccccc1Cl [Example 3, N-1-(2-chloro)phenethylbiguanide hydrochloride]
2 to 5	N=C(N)NCCc1ccc(Cl)c(Cl)c1 [Example 140, 1-(3,4-dichlorophenethyl)guanide hydrochloride]
2 to 5	N=C(N)NCCc1ccc(-c2ccccc2)cc1 [Example 195, 1-(4-phenylphenethyl)guanide hydrochloride]
< 2	Cc1ccc(CCNC(=N)N)c(C)c1 [Example 155, 1-(2,4-dimethylphenethyl)guanide hydrochloride]
2 to 5	Cc1ccc(CCNC(=N)NC(=N)N)c(C)c1 [Example 16, N-1-(2,4-dimethyl)phenethylbiguanide hydrochloride]
> 5	N=C(N)NC(=N)NCCc1ccccc1F [Example 9, N-1-(2-fluoro)phenethylbiguanide hydrochloride]
> 5	CCCNC(=N)NC(=N)NCCc1ccc2c(c1)CCCC2 [Example 127, N-1-propyl-N-5-(2-(5,6,7,8-tetrahydronaphthalen-2-yl)ethyl) biguanide hydrochloride]
< 2	Cc1cc(CCNC(=N)N)ccc1Cl [Example 206, 1-(4-chloro-3-methylphenthyl)guanide hydrochloride]
2 to 5	N=C(N)NCCc1cccc2c1CCCC2 [Example 192, hydrochloride]
> 5	N=C(N)NCCc1cccc(F)c1 [Example 178, 1-(3-fluorophenethyl)guanide hydrochloride]
2 to 5	N=C(N)NCCCc1ccccc1 [Example 165, 1-(3-phenylpropyl)guanide hydrochloride]
2 to 5	N=C(N)NC(=N)NCCc1ccc(Cl)cc1Cl [Example 4, N-1-(2,4-dichloro)phenethylbiguanide hydrochloride]
2 to 5	Cc1ccc(CCNC(=N)N)cc1 [Example 138, 1-(4-methylphenethyl)guanide hydrochloride]

What follows are compounds tested on SK-MEL-28 cells (assay: Cytotoxicity in low glucose condition (MTT)). Settings: Homo sapiens, SK-MEL-28, 0.75 mM glucose, 72 hours, read-out: SK-MEL-28 0.75 mM glucose Cell viability (IC50 ia).
Type: cell-based
Text: The inhibition of oxidative phosphorylation (OXPHOS) is not cytotoxic to cells in normal glucose condition, because it is postulated that normal cells have compensatory mechanism under energy stress conditions such as low glucose. However OXPHOS inhibitors show cytotoxic effect on cells in the glucose deprived condition (BirsoyK, 2014). The glucose deprived condition is observed in tumor microenvironment potentially due to poor angiogenesis. Therefore the OXPHOS inhibitors may show anti-cancer effect on cancer cells in low glucose condition that may depict tumor microenvironment.
The compounds of the present invention were evaluated their cytotoxicity in SK-MEL-28, melanoma with 0.75 mM glucose supplement. The cytotoxic effect is compared with the cytotoxicity caused by phenformin. The cytotoxicity in low glucose condition is correlated with inhibition of oxygen consumption in mitochondria.
SK-MEL-28 (HTB-72) is a melanoma cell line obtained from ATCC (MA) and cultured in RPMI 1640 media (Lifetechnologies, CA) with supplement of 10% FBS and antibiotic-antimycotic (Lifetechnologies, CA). RPMI 1640 (-Glucose) was used to prepare low glucose media and 0.75 mM glucose was supplied with D-(+)-glucose solution from Sigma. SK-MEL-28 cells were separated from culture plate using 0.5% trypsin-EDTA and 5,000 cells were plated in 96-well plate with low glucose media. After incubation at 37° C. for 24 hour, 5% CO2, the cells were treated with the compounds of present invention in FBS-free media for 72 hours. The cytotoxicity was measured by the MTT (AMRESCO, OH) assay. NADH-dependent cellular oxidoreductase reduces MTT to its insoluble […] with purple color. The enzyme depends on cell number or energy state of cells. 10 μl of 5 mg/ml MIT solution was added to each well of the assay plate and skip the well for blank. The plate was incubated at 37° C. and 5% CO2 for 2 hours. The MTT solution was removed from each well and 100 μl of DMSO was added. The plate was read by VICTOR X3 Multilabel Counter at the wavelength of 550 nm. In Table 2, the levels of IC50 are evaluated by the following criteria.

SMILES	IC50 [µM]
N=C(N)NC(=N)NCCc1ccccc1Br [Example 26, N-1-(2-bromo)phenethylbiguanide hydrochloride]	< 5
CNC(=N)NC(=N)NCCc1ccc2c(c1)CCCC2 [Example 126, N-1-methyl-N-5-(2-(5,6,7,8-tetrahydronaphthalen-2-yl)ethyl) biguanide hydrochloride]	< 5
N=C(N)NC(=N)NCc1ccc(Cl)c(Cl)c1 [Example 37, hydrochloride]	5 to 10
CNC(=N)NC(=N)NCCc1ccccc1 [Example 124, N-1-methyl-N-5-phenethylbiguanide hydrochloride]	> 10
N=C(N)NC(=N)NCCc1ccccc1Cl [Example 3, N-1-(2-chloro)phenethylbiguanide hydrochloride]	5 to 10
N=C(N)NCc1c(F)cc(F)cc1F [Example 153, 1-(2,4,6-trifluorobenzyl)guanide hydrochloride]	> 10
N=C(N)NCCc1ccc(-c2ccccc2)cc1 [Example 195, 1-(4-phenylphenethyl)guanide hydrochloride]	< 5
C/N=C(\NC)NC(=N)NCCc1ccc(Cl)c(Cl)c1 [Example 132, N-1-methyl-N-2-methyl-N-5-(3,4-dichloro)phenethylbiguanide hydrochloride]	> 10
CONC(=N)NC(=N)NCCc1ccc(Cl)c(Cl)c1 [Example 129, N-1-methoxy-N-5-(3,4-dichloro)phenethylbiguanide hydrochloride]	> 10
